Patent publication US20250042912A1, “NOVEL NON-FLUORINATED QUINOLONE COMPOUND AND USE THEREOF” (priority 2021, published 2025)
≈ marks a conversion by molar mass, not a printed value. Structures can show the parent of a compound that is named as a salt.

Key:
Type in all cases: cell-based
[1] = tested on: Propionibacterium acnes ATCC 6919; experiment: Minimum inhibitory concentration (MIC) assay, Propionibacterium acnes ATCC 6919; settings: Cutibacterium acnes, ATCC6919; anaerobic culture 35+/-2°C, 48 hours; read with naked eyes
Description: (§1) On the day of the experiment, the compound in the flask was dissolved in 100% DMSO until the concentration of mother liquor was 0.4 mg/mL. If the mother liquor was not used on the same day, it was stored at −80° C. for future use. The compound mother liquor and standard antibiotics were subjected to 2-fold gradient dilution with corresponding solvents on a 96-microwell plate (V-bottom) to obtain 100× working solutions (Well 1 to Well 7) in sequence. Among them, the concentrations of the compound were 400 μg/mL, 200 μg/mL, 100 μg/mL, 50 μg/mL, 25 μg/mL, 12.5 μg/mL, 6.25 μg/mL, and 3.125 μg/mL. 100% DMSO was used as growth control (Well 8). As such, the compound motherplate was obtained. Two days before the experiment, anaerobic bacteria (Propionibacterium acnes) stored in a cryogenic tube at −80° C. were scribed on an MBA (Brucella Agar+5% (v/v) defibrillated sheep blood+[…] Hemin+1 μg/mLVitamin K1) plate. The anaerobic bacteria were placed in a 35+/−2° C. anaerobic incubator for 42-48 hours of cultivation. On the day of the experiment, the plate was taken out, clones were picked from the plate and suspended in physiological saline. Then, the turbidity of the bacterial suspension (containing 1.0-2.0×10^8 CFU/mL) was adjusted to OD600=0.2 by a turbidity meter. Then, the adjusted bacterial suspension was diluted to an appropriate concentration with the assay culture medium: about 5×10^5 CFU/mL for aerobic bacteria, and about 1×10^6 CFU/mL for anaerobic bacteria. As such, the inoculating solution was obtained. […] Therefore, the final assay concentrations of the compound were 4 μg/mL, 2 μg/mL, 1 μg/mL, 0.5 μg/mL, 0.25 μg/mL, 0.125 μg/mL, 0.06 μg/mL and 0.03 μg/mL. The total volume of each well on the assay plate was 200 μL: containing 1% DMSO, about 5×10^5 CFU/mL of aerobic bacteria and about 1×10^6 CFU/mL of anaerobic bacteria. All assay plates for aerobic bacteria were aerobically cultured at 35+/−2° C. for 16 to 20 hours, and all assay plates for anaerobic bacteria were anaerobically cultured in an anaerobic incubator at 35+/−2° C. for 48 hours. Note: for anaerobic bacteria, both the preparation of bacterial solution in step 2 and the inoculation of bacterial solution in step 3 were operated in an anaerobic workstation.

[2] = tested on: Propionibacterium acnes ATCC 11827; experiment: Minimum inhibitory concentration (MIC) assay, Propionibacterium acnes ATCC 11827; settings: Cutibacterium acnes, ATCC11827; anaerobic culture 35+/-2°C, 48 hours; read with naked eyes
Description: as §1

[3] = tested on: Staphylococcus epidermidis ATCC 35984; experiment: Minimum inhibitory concentration (MIC) assay, Staphylococcus epidermidis ATCC 35984; settings: ATCC35984, aerobic culture 35+/-2°C, 16 to 20 hours, read with naked eyes
Description: (§2) On the day of the experiment, the compound in the flask was dissolved in 100% DMSO until the concentration of mother liquor was 0.4 mg/mL. If the mother liquor was not used on the same day, it was stored at −80° C. for future use.
(§3) The compound mother liquor and standard antibiotics were subjected to 2-fold gradient dilution with corresponding solvents on a 96-microwell plate (V-bottom) to obtain 100× working solutions (Well 1 to Well 7) in sequence. Among them, the concentrations of the compound were 400 μg/mL, 200 μg/mL, 100 μg/mL, 50 μg/mL, 25 μg/mL, 12.5 μg/mL, 6.25 μg/mL, and 3.125 μg/mL. 100% DMSO was used as growth control (Well 8). As such, the compound motherplate was obtained.
(§4) One day before the experiment, aerobic bacteria (Staphylococcus epidermidis) stored in a cryogenic tube at −80° C. were scribed on an MHA (Cation-adjusted Mueller-Hinton agar) plate. The aerobic bacteria were placed in a 35+/−2° C. incubator for 18-24 hours of aerobic cultivation.
(§5) On the day of the experiment, the plate was taken out, clones were picked from the plate and suspended in physiological saline. Then, the turbidity of the bacterial suspension (containing 1.0-2.0×10^8 CFU/mL) was adjusted to OD600=0.2 by a turbidity meter. Then, the adjusted bacterial suspension was diluted to an appropriate concentration with the assay culture medium: about 5×10^5 CFU/mL for aerobic bacteria, and about 1×10^6 CFU/mL for anaerobic bacteria. As such, the inoculating solution was obtained.
(§6) 2 μl of 2-fold series dilution of 100× high-concentration working solution was transferred from a compound mother plate (prepared in step 1) to a round-bottom 96-well plate, and then 198 μL of bacterial inoculating solution (prepared in step 2) was added to each well to obtain an MIC assay plate. Therefore, the final assay concentrations of the compound were 4 μg/mL, 2 μg/mL, 1 μg/mL, 0.5 μg/mL, 0.25 μg/mL, 0.125 μg/mL, 0.06 μg/mL and 0.03 μg/mL. The total volume of each well on the assay plate was 200 μL: containing 1% DMSO, about 5×10^5 CFU/mL of aerobic bacteria and about 1×10^6 CFU/mL of anaerobic bacteria.
(§7) All assay plates for aerobic bacteria were aerobically cultured at 35+/−2° C. for 16 to 20 hours, and all assay plates for anaerobic bacteria were anaerobically cultured in an anaerobic incubator at 35+/−2° C. for 48 hours.

[4] = tested on: Staphylococcus epidermidis ATCC 12228; experiment: Minimum inhibitory concentration (MIC) assay, Staphylococcus epidermidis ATCC 12228; settings: ATCC12228, aerobic culture 35+/-2°C, 16 to 20 hours, read with naked eyes
Description: as §2, §3, §4, §5, §6, §7

[5] = tested on: Staphylococcus epidermidis ATCC 35983; experiment: Minimum inhibitory concentration (MIC) assay, Staphylococcus epidermidis ATCC 35983; settings: ATCC35983, aerobic culture 35+/-2°C, 16 to 20 hours, read with naked eyes
Description: as §2, §3, §4, §5, §6, §7

| Compound | MIC [1] | MIC [2] | MIC [3] | MIC [4] | MIC [5] |
| --- | --- | --- | --- | --- | --- |
| Nc1cc2c(cn1)-c1ccc3c(=O)c(C(=O)O)cn(C4CC4)c3c1COC2 [Trifluoroacetate of Compound 7] | 0.125 µg/mL | 0.25 µg/mL | 0.03 µg/mL | 0.06 µg/mL | 0.03 µg/mL |
| O=C(O)c1cn(C2CC2)c2c3c(ccc2c1=O)-c1cc2nc[nH]c2cc1COC3 [Compound 3] | 0.06 µg/mL (≈ 0.155 µM) | 0.06 µg/mL (≈ 0.155 µM) | 0.06 µg/mL (≈ 0.155 µM) | 0.06 µg/mL (≈ 0.155 µM) | 0.06 µg/mL (≈ 0.155 µM) |
| O=C(O)c1cn(C2CC2)c2c3c(ccc2c1=O)-c1c[nH]c(=O)cc1COC3 [Compound 21] | 0.5 µg/mL (≈ 1.37 µM) | 1 µg/mL (≈ 2.74 µM) | 2 µg/mL (≈ 5.49 µM) | 1 µg/mL (≈ 2.74 µM) | 1 µg/mL (≈ 2.74 µM) |
| CN(CC(F)F)c1cc2c(cn1)-c1ccc3c(=O)c(C(=O)O)cn(C4CC4)c3c1COC2 [Trifluoroacetate of Compound 23] | 0.12 µg/mL | 0.25 µg/mL | ≤ 0.06 µg/mL | 0.12 µg/mL | 0.12 µg/mL |
| CNc1cc2c(cn1)-c1ccc3c(=O)c(C(=O)O)cn(C4CC4)c3c1C=CC2 [Compound 4] | 0.5 µg/mL (≈ 1.34 µM) | 0.5 µg/mL (≈ 1.34 µM) | 0.06 µg/mL (≈ 0.161 µM) | 0.125 µg/mL (≈ 0.335 µM) | 0.125 µg/mL (≈ 0.335 µM) |
| CNc1cc2c(cn1)-c1ccc3c(=O)c(C(=O)O)cn(C4CC4)c3c1CCC2 [Trifluoroacetate of Compound 20] | 1 µg/mL | 2 µg/mL | 0.125 µg/mL | 0.125 µg/mL | 0.125 µg/mL |
| O=C(O)c1cn(C2CC2)c2c3c(ccc2c1=O)-c1cnccc1COC3 [Trifluoroacetate of Compound 11] | 0.5 µg/mL | 0.25 µg/mL | 0.125 µg/mL | 0.03 µg/mL | 0.06 µg/mL |
| CNc1cc2c(cn1)-c1ccc3c(=O)c(C(=O)O)cn(C4CC4)c3c1COC2 [Trifluoroacetate of Compound 2] | 0.125 µg/mL | 0.25 µg/mL | 0.06 µg/mL | 0.06 µg/mL | 0.06 µg/mL |
| Cc1cc2c(cn1)-c1ccc3c(=O)c(C(=O)O)cn(C4CC4)c3c1COC2 [Sodium salt of Compound 10] | 0.125 µg/mL | 0.125 µg/mL | ≤ 0.03 µg/mL | 0.06 µg/mL | 0.06 µg/mL |
| CNc1ccc2c(n1)COCc1c-2ccc2c(=O)c(C(=O)O)cn(C3CC3)c12 [Hydrochloride of Compound 1] | 0.25 µg/mL | 0.25 µg/mL | 0.5 µg/mL | 0.5 µg/mL | 0.25 µg/mL |
| O=C(O)c1cn(C2CC2)c2c3c(ccc2c1=O)-c1cnc(NCC2CCC2)cc1COC3 [Trifluoroacetate of Compound 16] | 0.5 µg/mL | 0.5 µg/mL | 0.06 µg/mL | 0.06 µg/mL | 0.06 µg/mL |
| CN(C[C@H]1COC(C)(C)O1)c1cc2c(cn1)-c1ccc3c(=O)c(C(=O)O)cn(C4CC4)c3c1COC2 [Compound 25] | 0.25 µg/mL (≈ 0.509 µM) | 0.25 µg/mL (≈ 0.509 µM) | 0.25 µg/mL (≈ 0.509 µM) | 0.25 µg/mL (≈ 0.509 µM) | 0.5 µg/mL (≈ 1.02 µM) |
| COc1cc2c(cn1)-c1ccc3c(=O)c(C(=O)O)cn(C4CC4)c3c1COC2 [Compound 5] | 0.06 µg/mL (≈ 0.159 µM) | 0.06 µg/mL (≈ 0.159 µM) | 0.06 µg/mL (≈ 0.159 µM) | 0.06 µg/mL (≈ 0.159 µM) | 0.06 µg/mL (≈ 0.159 µM) |
| N=C(N)NOCCOCCNc1cc2c(cn1)-c1ccc3c(=O)c(C(=O)O)cn(C4CC4)c3c1COC2 [Hydrochloride of Compound 29] | 2 µg/mL | 1 µg/mL | 1 µg/mL | 2 µg/mL | 2 µg/mL |
| NCCNc1cc2c(cn1)-c1ccc3c(=O)c(C(=O)O)cn(C4CC4)c3c1COC2 [Trifluoroacetate of Compound 19] | 2 µg/mL | 2 µg/mL | 1 µg/mL | 2 µg/mL | 1 µg/mL |
| CCCNc1cc2c(cn1)-c1ccc3c(=O)c(C(=O)O)cn(C4CC4)c3c1COC2 [Trifluoroacetate of Compound 13] | 0.125 µg/mL | 0.25 µg/mL | 0.06 µg/mL | 0.06 µg/mL | 0.06 µg/mL |
| CC1(C)OC[C@H](CNc2cc3c(cn2)-c2ccc4c(=O)c(C(=O)O)cn(C5CC5)c4c2COC3)O1 [Compound 26] | 0.5 µg/mL (≈ 1.05 µM) | 0.5 µg/mL (≈ 1.05 µM) | 0.25 µg/mL (≈ 0.524 µM) | 0.25 µg/mL (≈ 0.524 µM) | 0.25 µg/mL (≈ 0.524 µM) |
| CCNc1cc2c(cn1)-c1ccc3c(=O)c(C(=O)O)cn(C4CC4)c3c1COC2 [Trifluoroacetate of Compound 14] | 0.06 µg/mL | 0.125 µg/mL | 0.03 µg/mL | 0.06 µg/mL | 0.06 µg/mL |
| O=C(O)c1cn(C2CC2)c2c3c(ccc2c1=O)-c1cnc(NCc2ccccc2)cc1COC3 [Trifluoroacetate of Compound 15] | 0.125 µg/mL | 0.5 µg/mL | 0.06 µg/mL | 0.06 µg/mL | 0.06 µg/mL |
| O=C(O)c1cn(C2CC2)c2c3c(ccc2c1=O)-c1cnc(NCCO)cc1COC3 [Trifluoroacetate of Compound 12] | 0.06 µg/mL | 0.125 µg/mL | 0.06 µg/mL | 0.06 µg/mL | 0.06 µg/mL |
| N=C(N)Nc1cc2c(cn1)-c1ccc3c(=O)c(C(=O)O)cn(C4CC4)c3c1COC2 [Trifluoroacetate of Compound 27] | 1 µg/mL | 1 µg/mL | 0.5 µg/mL | 0.5 µg/mL | 0.5 µg/mL |
| O=C(O)c1cn(C2CC2)c2c3c(ccc2c1=O)-c1cnc(NC[C@H](O)CO)cc1COC3 [Trifluoroacetate of Compound 22] | 0.25 µg/mL | 0.25 µg/mL | 0.12 µg/mL | 0.25 µg/mL | 0.25 µg/mL |
| Nc1ncc2c(n1)COCc1c-2ccc2c(=O)c(C(=O)O)cn(C3CC3)c12 [Trifluoroacetate of Compound 9] | 0.25 µg/mL | 0.25 µg/mL | 0.125 µg/mL | 0.03 µg/mL | 0.06 µg/mL |
